Values of other authors as cited in patent US5840893A, “Compounds for treating infectious diseases” (priority 1996, dated 1998).

Test system: importation of HIV-1 into the nucleus
Settings: 0.1M peptide in medium; aphidicolin-arrested CD4+ MT4 cells; cited from earlier work

SV40 T-antigen NLS: the peptide having the sequence of the SV40 T-antigen NLS (PKKKRKV)
block of HIV-1 importation into the nucleus: blocked the importation of HIV-1 into the nucleus
